According to ChEMBL document CHEMBL1759874, “Feruloylacetone as the model compound of half-curcumin: synthesis and antioxidant properties” (2011):
Activity calls are given as the source filed them. The calls are words filed in the database; no cut-off is given here.

Tests used:
[1] = Antioxidant activity against AAPH-induced hemolysis in human erythrocytes assessed as inhibition time; format: functional, Erythrocyte
[2] = Antioxidant activity against AAPH-induced DNA damage assessed as inhibition period for TBARS production; format: functional
[3] = Antioxidant activity assessed as galvinoxyl free radical scavenging activity at 25 uM; format: functional
[4] = Antioxidant activity against AAPH-induced DNA damage assessed as TBARS production; format: functional
[5] = system: Radical scavenging activity; experiment: Antioxidant activity assessed as DPPH free radical scavenging activity at 50 uM; format: functional
[6] = system: Erythrocyte; experiment: Antioxidant activity in human erythrocytes assessed as inhibition of hemin-induced hemolysis after 30 mins; format: functional, cell-based
[7] = Antioxidant activity against protection of autooxidation of linoleic acid at 50 uM by beta-carotene bleaching test; format: functional
[8] = Antioxidant activity against AAPH-induced methyl linoleate oxidation at 50 uM after 120 mins by beta-carotene bleaching test; format: functional
[9] = Antioxidant activity against singlet oxygen radicals assessed as decrease of 4-nitroso-N,N-dimethylaniline decolorization at 250 uM after 40 mins by quenching assay; format: functional
[10] = Antioxidant activity against hydroxyl radical-induced DNA damage assessed as TBARS production at 0.2 mM after 30 mins; format: functional
[11] = Antioxidant activity assessed as ABTS free radical scavenging activity at 50 uM; format: functional
[12] = Antioxidant activity against singlet oxygen radicals assessed as decrease of 4-nitroso-N,N-dimethylaniline decolorization after 40 mins by quenching assay; format: functional
[13] = system: Erythrocyte; experiment: Antioxidant activity in human erythrocytes assessed as inhibition of hemin-induced hemolysis at up to 120 uM after 30 mins; format: functional, cell-based
[14] = Antioxidant activity against AAPH-induced methyl linoleate oxidation assessed as inhibition period at 50 uM by beta-carotene bleaching test; format: functional
[15] = Antioxidant activity against singlet oxygen radicals assessed as decrease of 4-nitroso-N,N-dimethylaniline decolorization at up to 240 uM after 40 mins by quenching assay; format: functional
[16] = Antioxidant activity against Cu2+/GSH-induced oxidation of DNA assessed as TBARS production at 0.2 mM after 30 mins; format: functional
[17] = system: Erythrocyte; experiment: Antioxidant activity against AAPH-induced hemolysis in human erythrocytes at 54 uM; format: functional, cell-based
[18] = Antioxidant activity against singlet oxygen radicals assessed as decrease of 4-nitroso-N,N-dimethylaniline decolorization at 150 uM after 40 mins by quenching assay; format: functional
[19] = Antioxidant activity against AAPH-induced hemolysis in human erythrocytes assessed as inhibition time at 36 uM; format: functional, Erythrocyte
[20] = Antioxidant activity against AAPH-induced hemolysis in human erythrocytes assessed as inhibition time at 18 uM; format: functional, Erythrocyte

Row | Structure (SMILES) | Time [1] [min] | TIME [2] [h] | Activity [3] [µM/min] | Activity [4] | Activity [5] [µM/min] | Activity [6] | Activity [7] | Activity [10] | Activity [11] [µM/min] | Activity [12] | Activity [13] | Activity ([8]; TDE = time-dependent effect) | TIME [14] [h] | also measured
1 | COc1cc(/C=C/C(=O)CC(=O)/C=C/c2ccc(O)c(OC)c2)ccc1O [CURCUMIN] | 3.45 | 0.0405 | – | – | – | – | – | – | – | – | – | – | – | –
2 | CCOC(=O)/C(=C/c1ccc(O)c(OC)c1)C(C)=O | 1.83 | 0.0137 | 0.02 | Active | 7.54 | Dose-dependent effect | inactive | Active | 1.78 | Dose-dependent effect | – | – | – | Activity [8]: inactive; Activity [9]: Active
3 | COc1cc(/C=C/C(O)CC(C)O)ccc1O (stereo not given) | 2.05 | 0.0185 | 0.13 | Active | 8.57 | – | Active | Active | 6.26 | – | inactive | tde | 1.95 | Activity [15]: inactive
4 | CC(=O)CC(=O)/C=C/c1ccc(O)c(O)c1 | 3.92 | 0.0428 | 0.08 | Active | 41.2 | Dose-dependent effect | Active | Active | 7.56 | Dose-dependent effect | – | tde | 3.73 | Activity [16]: Active
5 | COc1cc(/C=C/C(=O)CC(C)=O)ccc1O | 2.38 | 0.0237 | 0.13 | Active | 22.3 | – | Active | Active | 6.04 | Dose-dependent effect | inactive | tde | 3.68 | Activity [16]: Active
6 | COc1cc(/C=C/C(=O)CC(C)=O)ccc1OCc1ccccc1 | 3.3 | – | – | Active | – | – | inactive | Active | – | Dose-dependent effect | inactive | – | – | Activity [17]: Active; Activity [8]: inactive; Activity [18]: Active; Time [19]: 56 min; Time [20]: 80 min
7 | COc1cc(CCC(=O)CC(C)=O)ccc1O | 3.48 | 0.0318 | 0.06 | Active | 16.9 | Dose-dependent effect | inactive | Active | 3.85 | Dose-dependent effect | – | tde | 2.67 | –
